# pIC50: −log10 of the molar value.
# Columns and labels:
# V₂ receptor = biological target: T1, V₂ receptor (Rattus norvegicus, UniProt Q00788); test: V₂ receptor binding assay ([³H]-Arg-vasopressin, rat kidney plasma membrane preparations); details: 4°C for 3 hours
# T1 construct: Using rat kidney plasma membrane preparations; from tissue; host or cells: rat kidney plasma membranes
# Experimental: Using rat kidney plasma membrane preparations prepared according to O. Hechter's method [cf: J. Bio. […] After incubation, the mixture is filtered using the glass filter (GF/F) so as to separate the membrane preparation combined with vasopressin and then washed twice with the buffer (5 ml). This glass filter is taken out and mixed with liquid scintillation cocktail. The amount of [³H]-vasopressin combined with the membrane is measured by liquid scintillation counter and the rate of the inhibitory effect of the test compound is estimated according to the following equation. Rate of the inhibitory effect (%) = 100 -(C1 - B1)/(C0 - B1)X 100 [formula] C¹: The amount of [³H]-vasopressin combined with the membrane in the presence of the test compound (in prescribed amount). C⁰: The amount of [³H)-vasopressin combined with the membrane in the absence of the test compound. B¹: The amount of [³H]-vasopressin combined with the membrane in the presence of the excess amount of vasopressin (10⁻⁶ M).
# (§1) The results are expressed as IC₅₀ values, which is the concentration of the test compound required to achieve the inhibitory effect in the rate of 50 %.
# V₁ receptor = biological target: T2, V₁ receptor (Rattus norvegicus, UniProt P30560); test: V₁ receptor binding assay ([³H]-Arg-vasopressin, rat liver plasma membrane preparations); details: 37°C for 10 minutes
# T2 construct: Using rat liver plasma membrane preparations; from tissue; host or cells: rat liver plasma membranes
# Experimental: Using rat liver plasma membrane preparations prepared according to Ichihara's method [cf: Akira Ichihara, J. Bio. Chem., 258, 9283 (1983)], the plasma membrane (50000dpm, 2x10⁻¹⁰ M) of [³H]-Arg-vasopressin and a test compound (60 µg, 10⁻⁸-10⁻⁴ M) are incubated at 37°C for 10 minutes in 100 mM Tris-HCl buffer (pH: 8.0, 250 µl) containing 5 mM MgCl₂, 1 mM EDTA and 0.1 % BSA. After incubation, the mixture is filtered three times using the glass filter (GF/F) so as to separate the membrane preparation combined with vasopressin and then washed with the buffer (5 ml). This glass filter is taken out and mixed with liquid scintillation cocktail. The amount of [³H]-vasopressin combined with the membrane is measured by liquid scintillation counter and the rate of the inhibitory effect of the test compound is estimated according to the following equation. Rate of the inhibitory effect (%) = 100 -(C1 - B1)/(C0 - B1)X 100 [formula] C¹: The amount of [³H]-vasopressin combined with the membrane in the presence of the test compound (in prescribed amount). C⁰: The amount of [³H]-vasopressin combined with the membrane in the absence of the test compound. B¹: The amount of [³H]-vasopressin combined with the membrane in the presence of the excess amount of vasopressin (10⁻⁶ M).
# as §1
# T1 sequence (Q00788 whole entry): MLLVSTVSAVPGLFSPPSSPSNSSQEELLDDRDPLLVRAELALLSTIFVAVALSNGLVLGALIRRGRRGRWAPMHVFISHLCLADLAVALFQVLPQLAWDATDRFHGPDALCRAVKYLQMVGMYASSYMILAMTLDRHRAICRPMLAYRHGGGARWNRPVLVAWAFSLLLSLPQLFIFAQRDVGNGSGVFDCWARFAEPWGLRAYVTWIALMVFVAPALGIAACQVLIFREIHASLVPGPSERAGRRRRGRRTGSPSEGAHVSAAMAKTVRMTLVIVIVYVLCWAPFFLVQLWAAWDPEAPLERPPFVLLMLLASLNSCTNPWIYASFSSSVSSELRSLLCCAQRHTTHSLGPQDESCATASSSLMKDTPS
# T2 sequence (P30560 whole entry): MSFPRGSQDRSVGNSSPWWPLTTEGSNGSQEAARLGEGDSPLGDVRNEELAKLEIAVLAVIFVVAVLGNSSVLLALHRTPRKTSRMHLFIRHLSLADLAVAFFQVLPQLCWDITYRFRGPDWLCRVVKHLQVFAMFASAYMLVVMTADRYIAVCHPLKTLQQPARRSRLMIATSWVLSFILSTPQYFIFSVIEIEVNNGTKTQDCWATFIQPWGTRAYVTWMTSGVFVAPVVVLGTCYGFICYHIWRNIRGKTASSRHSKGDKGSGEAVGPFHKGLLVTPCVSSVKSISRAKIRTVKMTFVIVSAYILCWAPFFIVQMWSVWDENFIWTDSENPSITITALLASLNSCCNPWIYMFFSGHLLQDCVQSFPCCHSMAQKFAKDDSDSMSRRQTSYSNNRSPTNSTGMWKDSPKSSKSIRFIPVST
Compound,pIC50 (V₂ receptor),pIC50 (V₁ receptor)
O=C(Nc1ccc(C(=O)N2CCCCc3ccccc32)cc1)C1CCCCC1 [compound 26],7.60,7.15
O=C(Nc1ccc(C(=O)N2CCCCc3ccccc32)cc1)c1ccccc1 [compound 27],7.15,7.02
Cc1ccccc1C(=O)Nc1ccc(C(=O)N2CCCCc3ccccc32)cc1 [compound 28],7.74,7.25
COc1cccc(C(=O)Nc2ccc(C(=O)N3CCCCc4ccccc43)cc2)c1 [compound 29],7.16,6.82
O=C(Nc1ccc(C(=O)N2CCCCc3ccccc32)cc1)c1cccc(Cl)c1 [compound 30],7.54,6.82
O=C(Nc1ccc(C(=O)N2CCCCc3ccccc32)cc1)c1cc(Cl)cc(Cl)c1 [compound 32],7.80,6.52
Cc1ccccc1C(=O)Nc1ccc(C(=O)N2CCCCCc3ccccc32)cc1 [compound 36],7.55,6.39
Cc1ccccc1C(=O)Nc1ccc(C(=O)N2CC(C)Cc3ccccc32)cc1 (stereo not drawn) [compound 46],7.74,6.40
O=C(Nc1ccc(C(=O)N2CCCCc3ccccc32)cc1)c1ccccc1Br [compound 56],7.43,7.60
O=C(Nc1ccc(C(=O)N2CCCCc3ccccc32)cc1)c1cccc([N+](=O)[O-])c1 [compound 57],6.80,6.34
O=C(Nc1ccc(C(=O)N2CCCCc3ccccc32)cc1)c1cccc(C(F)(F)F)c1 [compound 58],6.85,6.40
CCOc1cccc(C(=O)Nc2ccc(C(=O)N3CCCCc4ccccc43)cc2)c1 [compound 59],6.62,6.51
COc1cc(OC)cc(C(=O)Nc2ccc(C(=O)N3CCCCc4ccccc43)cc2)c1 [compound 60],6.82,6.74
O=C(Nc1ccc(C(=O)N2CCCCc3ccccc32)cc1)c1ccc(Cl)cc1Cl [compound 62],7.64,7.01
O=C(Nc1ccc(C(=O)N2CCCCc3ccccc32)cc1)c1c(F)cccc1Cl [compound 63],7.34,6.85
Cc1cccc(C)c1C(=O)Nc1ccc(C(=O)N2CCCCc3ccccc32)cc1 [compound 64],8.15,7.16
Nc1cccc(C(=O)Nc2ccc(C(=O)N3CCCCc4ccccc43)cc2)c1 [compound 67],7.30,6.47
CC(C)NCCCCOc1ccccc1C(=O)Nc1ccc(C(=O)N2CCCCc3ccccc32)cc1 [compound 68],6.72,7.89
O=C(Nc1ccc(C(=O)N2CCCCc3ccccc32)cc1)c1cccc(O)c1 [compound 69],6.92,7.18
NCCCCOc1ccccc1C(=O)Nc1ccc(C(=O)N2CCCCc3ccccc32)cc1 [compound 70],7.92,7.39
CCN(CC)CCOc1ccccc1C(=O)Nc1ccc(C(=O)N2CCCCc3ccccc32)cc1 [compound 71],7.07,6.74
CC(=O)NCCCCOc1ccccc1C(=O)Nc1ccc(C(=O)N2CCCCc3ccccc32)cc1 [compound 72],6.80,6.92
O=C(Nc1ccc(C(=O)N2CCCCc3ccccc32)cc1)c1ccccc1OCCCCCCN1CCOCC1 [compound 74],6.29,7.00
CN1CCN(CCCCCCOc2ccccc2C(=O)Nc2ccc(C(=O)N3CCCCc4ccccc43)cc2)CC1 [compound 75],6.52,7.16
COc1cc(C(=O)N2CCCCc3ccccc32)ccc1NC(=O)C1CCCCC1 [compound 76],7.77,7.38
COc1cc(C(=O)N2CCCCc3ccccc32)ccc1NC(=O)c1ccccc1 [compound 77],7.05,7.07

Compound,pIC50 (V₂ receptor),pIC50 (V₁ receptor)
Cc1cc(C(=O)N2CCCCc3ccccc32)ccc1NC(=O)c1ccccc1C [compound 78],7.08,7.00
CN1CCCN(C(=O)c2ccc(NC(=O)C3CCCCC3)cc2)c2ccccc21 [compound 88],7.68,6.47
Cc1ccccc1C(=O)Nc1ccc(C(=O)N2CCCN(C)c3ccccc32)cc1 [compound 90],7.85,6.42
CCN(CC(=O)Nc1ccc(C(=O)N2CCCCc3ccccc32)cc1)c1ccccc1 [compound 114],8.22,7.96
C=CCN(CC(=O)Nc1ccc(C(=O)N2CCCCc3ccccc32)cc1)c1ccccc1 [compound 115],8.22,7.92
O=C(CNc1ccccc1Cl)Nc1ccc(C(=O)N2CCCCc3ccccc32)cc1 [compound 116],7.41,7.40
CC(=O)OCCCCOc1ccccc1C(=O)Nc1ccc(C(=O)N2CCCCc3ccccc32)cc1 [compound 117],6.62,6.66
NC(=O)COc1ccccc1C(=O)Nc1ccc(C(=O)N2CCCCc3ccccc32)cc1 [compound 119],7.23,7.31
O=C(Nc1ccc(C(=O)N2CCCCc3ccccc32)cc1)c1ccccc1OCCCCO [compound 120],6.55,6.54
CNC(=O)NC1CCCN(C(=O)c2ccc(NC(=O)c3ccccc3C)cc2)c2ccccc21 (stereo not drawn) [compound 283],7.02,–
CN(C)C1CCCN(C(=O)c2ccc(NC(=O)c3cccc([N+](=O)[O-])c3)cc2)c2ccccc21 (stereo not drawn) [compound 289],7.15,–
CNCC(=O)NC1CCCN(C(=O)c2ccc(NC(=O)c3ccccc3C)cc2)c2ccccc21 (stereo not drawn) [compound 291],6.89,–
CN(C)C1CCCN(C(=O)c2ccc(NC(=O)c3cccc(N)c3)cc2)c2ccccc21 (stereo not drawn) [compound 292],6.74,–
CCN(CC)CCOc1cc(C(=O)N2CCCC(N(C)C)c3ccccc32)ccc1NC(=O)c1ccccc1C (stereo not drawn) [compound 294],6.48,–
Cc1ccccc1C(=O)Nc1ccc(C(=O)N2CCCC(N(C)CC(=O)N(C)C)c3ccccc32)cc1 (stereo not drawn) [compound 295],7.59,–
Cc1ccccc1C(=O)Nc1ccc(C(=O)N2CCCC(N(C)C(=O)Cn3ccnc3)c3ccccc32)cc1 (stereo not drawn) [compound 297],7.29,–
Cc1ccccc1C(=O)Nc1ccc(C(=O)N2CCCC(NC(=O)CN)c3ccccc32)cc1 (stereo not drawn) [compound 299],6.66,–
CC(=O)Nc1cccc(C(=O)Nc2ccc(C(=O)N3CCCC(N(C)C)c4ccccc43)cc2)c1 (stereo not drawn) [compound 300],6.32,–
Cc1ccccc1C(=O)Nc1ccc(C(=O)N2CCCC(NC(=O)CNC(=O)OC(C)(C)C)c3ccccc32)cc1 (stereo not drawn) [compound 301],6.85,–
CN(C)C1CCCN(C(=O)c2ccc(NC(=O)Cc3ccccc3)cc2)c2ccccc21 (stereo not drawn) [compound 305],7.42,–
CN(C)C1CCCN(C(=O)c2ccc(NC(=O)CCc3ccccc3)cc2)c2ccccc21 (stereo not drawn) [compound 306],7.11,–
CCN(C)C1CCCN(C(=O)c2ccc(NC(=O)c3ccccc3Cl)cc2Cl)c2ccccc21 (stereo not drawn) [compound 314],7.02,–
Cc1ccccc1N(C)CC(=O)Nc1ccc(C(=O)N2CCCC(N(C)C)c3ccccc32)cc1 (stereo not drawn) [compound 317],7.14,–
CNC1CCCN(C(=O)c2ccc(NC(=O)c3ccccc3C)cc2)c2c(Cl)cccc21 (stereo not drawn) [compound 318],7.22,–
CN(C)C1CCCN(C(=O)c2ccc(NC(=O)COc3ccccc3)cc2)c2ccccc21 (stereo not drawn) [compound 319],7.24,–
CNC1CCCCN(C(=O)c2ccc(NC(=O)c3ccccc3C)cc2)c2ccccc21 (stereo not drawn) [compound 320],7.41,–

# — patent EP0450097B1, “BENZOHETEROCYCLIC COMPOUNDS” (OTSUKA PHARMACEUTICAL CO., LTD., priority 1989, dated 1991)
